Reference: patent US11603355B2, “Charged ion channel blockers and methods for use” (Nocion Therapeutics, Inc., priority 2019, dated 2023)

What was measured:
NaV1.7 [1] = target: T1, NaV1.7 (Homo sapiens, UniProt Q15858); assay: Manual patch clamp, external block of NaV1.7 current; format: cell-based; settings: % inhibition at 10 μM test concentration, compound in external solution, HEK293 cells, read-out: Nav1.7 Extracellular Inhibition
T1 construct: expressed in transfected cells; host or cells: HEK293 (tetracycline-inducible)
Procedure: (§1) Representative compounds of the invention were synthesized according to the described methods and tested for the ability to inhibit voltage-gated sodium channels.
(§2) NaV1.7 was expressed in HEK293 cells upon induction with tetracycline. Cells were cultured in DMEM containing 10% dialyzed Fetal Bovine Serum (VWR, Radnor, Pa.), 1% Glutamax (VWR, Radnor, Pa.), 1% Penicillin-Streptomycin (VWR, Radnor, Pa.), 100 mg/L Hygromycin (Thermo Fisher Scientific, Waltham, Mass. and 5 mg/L Blasticidin (Alfa Aesar, Haverhill, Mass.). Cells were grown and maintained at 37° C. in a humidified environment containing 10% CO2 in air. Cells were detached from the culture flask for passage and harvested using 0.05% Trypsin-EDTA (Thermo Fisher Scientific, Waltham, Mass.). To induce NaV1.7, cells were induced with tetracycline (0.1-1 μg/mL, IBI Scientific, Peosta, Iowa) the day before recording and plated onto 24-well plates. Cells were washed with DPBS (VWR, Radnor, Pa.), trypsinized and then triturated five times in 10 mL of growth media to break apart cell aggregates. For one 24-well plate, 2 mL of cell suspension was mixed with 23 mL of fresh growth media and 0.1-1 μg/mL tetracycline added. 1 ml of mixed media with cells was then added to each well of a 24-well plate, with a 12 mm coverslip already placed in the bottom of the well. Cells were then incubated in 37° C. and 10% CO2 overnight.
(§3) The intracellular solution contained the following (in mM) CsCl 135, NaCl 10, EGTA 10, HEPES 10, MgCl2 2, adjusted to pH 7.2 with CsOH. The external solution was a normal Ringer solution containing (in mM) NaCl 155, HEPES 10, glucose 10, KCl 3.5, CaCl2 1.5, MgCl2 1 adjusted to pH 7.4 with NaOH. CsCl is from Alfa Aesar, Haverhill, Mass. All other chemicals are from Sigma-Aldrich, St. Louis, Mo. In order to test the degree of internal block by test compounds the compounds were dissolved in internal solution at the indicated test concentration. […] In order to test the degree of external block by test compounds the compounds were dissolved in external solution at the indicated test concentration.
(§4) 18-24 hours after cells were induced with tetracycline, coverslips were placed into a chamber filled with Normal Ringer solution at room temperature and the chamber placed on a microscope. Pipettes were pulled from borosilicate glass on a P97 puller (Sutter Instrument, Novato, Calif.) and polished with a MF-830 Microforge (Narishige International USA, Inc., Amityville, N.Y.) to have a resistance of 1.5-2.5 MΩ when filled with CsCl internal solution at room temperature. Healthy cells (those that are round and translucent with no visible blemishes) were chosen for seal formation. A seal was formed between the pipette and the cell, and a brief pulse of suction was used to “break in” and establish the whole-cell configuration. The membrane potential was held at −100 mV before the voltage protocol began. Only cells with series resistance between 1.5-5 MΩ were retained for analysis. The voltage protocol was as follows: Cells were held at −100 mV for 12 ms followed by a hyperpolarizing step to −105 mV for 12 ms to monitor the leak. Cells were then stepped back to −100 mV for 40 ms. Cells were then depolarized to −20 mV for 10 ms and then returned to −100 mV for 26 ms.
Once the recording was started, the voltage protocol was run at 30 second intervals for 5 minutes to get a stable baseline. This is followed by 5 Hz stimulation of the same voltage protocol run until the end of experiment. […] The test compound is added for 5 minutes before washing out with normal Ringer's solution. Currents were recorded using PatchMaster software with Heka EPC10 (HEKA Electronics, Lambrecht, Germany). Only cells with inward current amplitudes at −20 mV between 400 pA and 4 nA were accepted. In addition, cells having leak currents greater than 10% of their current amplitudes were discarded. […]

NaV1.7 [2] = target: T1, NaV1.7; assay: Manual patch clamp, internal block of NaV1.7 current; format: cell-based; settings: compound in internal solution, HEK293 cells, read-out: Nav1.7 Intracellular Inhibition; for inhibition at 3 µM: % inhibition at 3 μM test concentration; for inhibition at 10 µM: % inhibition at 10 μM test concentration
Procedure: as §1, §2, §3, §4
Once the recording was started, the voltage protocol was run at 30 second intervals for 5 minutes to get a stable baseline. This was followed by four 30-second periods of 5 Hz stimulation of the same voltage protocol separated by 1 minute of rest which was then followed by 0.33 Hz stimulation after the last train. Currents were recorded using PatchMaster software with Heka EPC10 (HEKA Electronics, Lambrecht, Germany). Only cells with inward current amplitudes at −20 mV between 400 pA and 4 nA were accepted. In addition, cells having leak currents greater than 10% of their current amplitudes were discarded. […]

[3] = PAMPA membrane permeability assay; format: in vitro ADME; settings: permeability coefficient, pH 7.4 buffer, GIT lipid, 4 hours incubation
Procedure, shortened: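 Passive diffusion across a GIT-lipid-painted artificial membrane at pH 7.4, with a 50 uM donor stock diluted from DMSO and a 4 h incubation. UV spectra of the donor, acceptor and reference plates were read, and the permeability coefficient was calculated from the AUCs, in 10^−6 cm/s.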

NaV1.7 [4] = target: T1, NaV1.7; assay: Automated patch clamp (Qube 384), internal block of NaV1.7; format: cell-based; settings: IC50, compound in internal solution, HEK293 cells, read-out: Nav1.7 Intracellular Inhibition
Procedure: NaV1.7 was expressed in HEK293 cells upon induction with tetracycline. Cells were cultured in DMEM containing 10% dialyzed Fetal Bovine Serum (VWR, Radnor, Pa.), 1% Glutamax (VWR, Radnor, Pa.), 1% Penicillin-Streptomycin (VWR, Radnor, Pa.), 100 mg/L Hygromycin (Thermo Fisher Scientific, Waltham, Mass. and 5 mg/L Blasticidin (Alfa Aesar, Haverhill, Mass.). Cells were grown and maintained at 37° C. in a humidified environment containing 10% CO2 in air. Cells were detached from the culture flask for passage and harvested using 0.05% Trypsin-EDTA (Thermo Fisher Scientific, Waltham, Mass.). To induce NaV1.7, cells were induced with tetracycline (0.1-1 μg/mL, IBI Scientific, Peosta, Iowa) the day before recording.
Before experiments, cells were washed with DPBS (VWR, Radnor, Pa.), digested with Detachin (VWR Radnor, Pa.) and then triturated 10 times in CHO Serum-Free Media (VWR Radnor, Pa.) to resuspend the cells and to break apart cell aggregates. Cells were counted and the final concentration was set at 2-5 million cells per mL.
The intracellular solution contained the following: 140 mM CsF, 1 mM/5 mM EGTA/CsOH, 10 mM HEPES, 10 mM NaCl, adjusted to pH 7.3 with CsOH, and osmolality to 320 with OSM solution. The external solution contained the following: 145 mM NaCl, 4 mM KCl, 1 mM MgCl2, 2 mM CaCl2), 10 mM HEPES, 10 mM Glucose, adjusted to pH 7.4 with CsOH and osmolality to 305 with OSM solution. The OSM solution was a normal Ringer solution containing (in mM) NaCl 155, HEPES 10, sucrose, KCl 3.5, CaCl2) 1.5, MgCl2 1 adjusted to pH 7.4 with NaOH. All chemicals are from Sigma-Aldrich, St. Louis, Mo. In order to test the degree of internal block by test compounds, the compounds were dissolved in internal solution at the indicated test concentration. […] In order to test the degree of external block by test compounds the compounds were dissolved in external solution at the indicated test concentration.
Automated Patch Clamps were performed on Qube 384 (Sophion Bioscience, Woburn Mass.) with multihole Qchips at a temperature setting of 22 degrees. The whole cells configuration was formed with default Qube seal and break-in parameter. The membrane potential was held at −100 mV before the voltage protocol began. Two voltage protocols were followed.
Step 1: Cells were held at −100 mV with a depolarized pulse to −20 mV for 10 ms, the interval was set at 5 s. Currents were corrected by default leak subtraction from every pulse. The duration was set at 5 mins.
Step 2: Cells were held at −100 mV with a depolarized pulse to −20 mV for 10 ms. The frequency was 5 Hz. Currents were corrected by leak subtraction calculated before step 2. The duration was set at 4 mins.
After Step 2, the Qchip was removed from the recording chamber. The internal solution was changed with solutions containing test compounds. Qchips were held at −100 mV without pulsing after being replaced in the recording chamber. The total solution switching time was 8 minutes. After the internal solution exchange, Cells were recorded and step 2 for repeated for 10 minutes.
Data analysis was performed by Sophion Analyzer. Cells were filtered with minimum 50 MOhm seal resistance and minimum 5 nA starting current. The rundown of the currents was corrected with control cells (Non-Drug). The remaining was calculated by averaging last 3 points in the end of experiments. The base line was calculated as the average of last 3 points of Step 2.
IC50 curves were plotted with DR-plots/Hill function (a dose-response plot with a Hill fit).
Representative examples of the invention were tested for intracellular inhibition of NaV 1.7 in the automated patch clamp assay. Activity Range is reported as IC50: “++++” (<0.3 μM), “+++” (0.3-1 μM), “++” (1-3 μM) or “+” (3-10 μM).

T1 sequence (Q15858 whole entry): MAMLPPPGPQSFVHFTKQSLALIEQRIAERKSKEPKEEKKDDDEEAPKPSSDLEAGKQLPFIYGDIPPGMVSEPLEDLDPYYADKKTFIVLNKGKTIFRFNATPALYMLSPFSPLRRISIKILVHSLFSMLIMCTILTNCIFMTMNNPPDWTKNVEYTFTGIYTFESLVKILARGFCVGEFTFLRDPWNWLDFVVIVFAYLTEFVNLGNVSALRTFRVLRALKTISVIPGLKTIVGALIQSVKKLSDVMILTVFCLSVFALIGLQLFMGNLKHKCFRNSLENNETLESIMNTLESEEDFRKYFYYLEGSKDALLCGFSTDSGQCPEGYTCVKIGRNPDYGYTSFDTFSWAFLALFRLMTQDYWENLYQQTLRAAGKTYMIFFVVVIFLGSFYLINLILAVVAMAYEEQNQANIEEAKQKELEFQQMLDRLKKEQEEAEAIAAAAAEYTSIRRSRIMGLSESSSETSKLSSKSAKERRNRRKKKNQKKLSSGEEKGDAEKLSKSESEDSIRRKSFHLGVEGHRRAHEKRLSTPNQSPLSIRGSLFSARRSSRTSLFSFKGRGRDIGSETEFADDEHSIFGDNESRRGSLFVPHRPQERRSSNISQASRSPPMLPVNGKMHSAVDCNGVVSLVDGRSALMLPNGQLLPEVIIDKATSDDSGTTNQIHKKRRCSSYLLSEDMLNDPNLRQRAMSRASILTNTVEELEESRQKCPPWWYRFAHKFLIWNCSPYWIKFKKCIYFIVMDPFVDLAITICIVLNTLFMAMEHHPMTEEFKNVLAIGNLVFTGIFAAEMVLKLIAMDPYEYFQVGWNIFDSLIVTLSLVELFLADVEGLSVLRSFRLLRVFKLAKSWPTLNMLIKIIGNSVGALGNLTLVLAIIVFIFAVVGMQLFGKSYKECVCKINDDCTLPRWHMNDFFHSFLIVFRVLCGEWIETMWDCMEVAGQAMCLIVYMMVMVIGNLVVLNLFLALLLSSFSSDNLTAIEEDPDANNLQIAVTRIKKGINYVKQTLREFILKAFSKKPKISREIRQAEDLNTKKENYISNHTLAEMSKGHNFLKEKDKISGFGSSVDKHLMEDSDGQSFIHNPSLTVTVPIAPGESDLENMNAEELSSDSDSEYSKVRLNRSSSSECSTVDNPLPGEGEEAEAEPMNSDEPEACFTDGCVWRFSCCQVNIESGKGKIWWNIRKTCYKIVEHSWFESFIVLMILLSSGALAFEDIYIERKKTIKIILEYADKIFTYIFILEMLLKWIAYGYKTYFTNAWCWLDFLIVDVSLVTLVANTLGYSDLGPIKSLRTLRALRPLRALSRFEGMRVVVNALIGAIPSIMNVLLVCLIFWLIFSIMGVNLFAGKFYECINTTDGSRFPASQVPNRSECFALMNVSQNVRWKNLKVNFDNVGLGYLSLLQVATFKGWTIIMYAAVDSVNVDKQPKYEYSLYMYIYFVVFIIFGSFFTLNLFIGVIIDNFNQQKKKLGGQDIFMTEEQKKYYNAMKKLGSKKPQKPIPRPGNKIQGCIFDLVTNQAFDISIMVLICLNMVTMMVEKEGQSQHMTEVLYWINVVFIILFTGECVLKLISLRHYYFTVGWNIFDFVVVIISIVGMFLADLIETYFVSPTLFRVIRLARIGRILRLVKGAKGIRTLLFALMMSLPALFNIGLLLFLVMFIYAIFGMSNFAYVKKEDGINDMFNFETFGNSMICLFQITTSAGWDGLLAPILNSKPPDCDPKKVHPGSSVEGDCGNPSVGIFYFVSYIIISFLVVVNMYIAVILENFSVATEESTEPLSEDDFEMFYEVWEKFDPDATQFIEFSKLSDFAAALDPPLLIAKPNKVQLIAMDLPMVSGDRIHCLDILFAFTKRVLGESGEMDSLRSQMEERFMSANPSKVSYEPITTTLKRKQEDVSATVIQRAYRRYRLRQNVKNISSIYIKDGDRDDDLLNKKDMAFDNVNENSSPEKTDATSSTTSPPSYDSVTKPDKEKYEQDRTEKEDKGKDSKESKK

inhibition at 10 µM (NaV1.7 [1])	inhibition at 3 µM (NaV1.7 [2])	inhibition at 10 µM (NaV1.7 [2])	PAMPA (10^−6 cm/s) [3]	IC50 (NaV1.7 [4])	Compound
< 40%	70 to 90%	70 to 95%			Cc1cccc(C)c1NC(=O)C[N+]1(Cc2ccccc2)CCCCC1 [Compound 4A, 1-benzyl-1-(2-((2,6-dimethylphenyl)amino)-2-oxoethyl)piperidin-1-ium bromide]
40 to 70%	> 90%	> 95%	+ (“+” (<0.1 10^−6 cm/s))		Cc1cccc(C)c1NC(=O)C[N+]1(Cc2ccccc2)CCCCCC1.[Br-] [Compound 3A, 1-benzyl-1-(2-((2,6-dimethylphenyl)amino)-2-oxoethyl) azepan-1-ium bromide]
40 to 70%	> 90%			300 to 1000 nM	CCc1cccc(C)c1NC(=O)C[N+]1(Cc2ccccc2)CCCCCC1 [Compound 70A]
< 40%	70 to 90%	> 95%	+ (“+” (<0.1 10^−6 cm/s))		CCC(C(=O)Nc1c(C)cccc1C)[N+]1(Cc2ccccc2F)CCCCC1 (stereo not drawn) [Compound 9A]
< 40%	70 to 90%	70 to 95%	+ (“+” (<0.1 10^−6 cm/s))		CCC(C(=O)Nc1c(C)cccc1C)[N+]1(Cc2ccccc2)CCCCC1.[Br-] (stereo not drawn) [Compound 6A, 1-benzyl-1-(1-((2,6-dimethylphenyl)amino)-1-oxobutan-2-yl)piperidin-1-ium bromide]
